Experimental data from patent US8614327B2 (Vertex Pharmaceuticals Incorporated, priority 2004, dated 2013).

Biological target: T1, ΔF508-CFTR (Homo sapiens, UniProt P13569, DEL508-508)
T1 construct: expressed in transfected cells
Test: Membrane potential optical (FRET/VIPR) assay, identification of potentiator compounds
Type: cell-based
Details: Table 3, assay not given; for % Activity: relative efficacy
Method in brief: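 NIH3T3 mouse fibroblasts stably expressing ΔF508-CFTR, temperature-corrected 24 h at 27° C., read on VIPR by FRET between CC2-DMPE and DiSBAC2(3). Potentiators identified in a double-addition format, first adding chloride-free (gluconate) medium with or without compound.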

T1 sequence (P13569 with tags, fused parts or gaps DEL508-508): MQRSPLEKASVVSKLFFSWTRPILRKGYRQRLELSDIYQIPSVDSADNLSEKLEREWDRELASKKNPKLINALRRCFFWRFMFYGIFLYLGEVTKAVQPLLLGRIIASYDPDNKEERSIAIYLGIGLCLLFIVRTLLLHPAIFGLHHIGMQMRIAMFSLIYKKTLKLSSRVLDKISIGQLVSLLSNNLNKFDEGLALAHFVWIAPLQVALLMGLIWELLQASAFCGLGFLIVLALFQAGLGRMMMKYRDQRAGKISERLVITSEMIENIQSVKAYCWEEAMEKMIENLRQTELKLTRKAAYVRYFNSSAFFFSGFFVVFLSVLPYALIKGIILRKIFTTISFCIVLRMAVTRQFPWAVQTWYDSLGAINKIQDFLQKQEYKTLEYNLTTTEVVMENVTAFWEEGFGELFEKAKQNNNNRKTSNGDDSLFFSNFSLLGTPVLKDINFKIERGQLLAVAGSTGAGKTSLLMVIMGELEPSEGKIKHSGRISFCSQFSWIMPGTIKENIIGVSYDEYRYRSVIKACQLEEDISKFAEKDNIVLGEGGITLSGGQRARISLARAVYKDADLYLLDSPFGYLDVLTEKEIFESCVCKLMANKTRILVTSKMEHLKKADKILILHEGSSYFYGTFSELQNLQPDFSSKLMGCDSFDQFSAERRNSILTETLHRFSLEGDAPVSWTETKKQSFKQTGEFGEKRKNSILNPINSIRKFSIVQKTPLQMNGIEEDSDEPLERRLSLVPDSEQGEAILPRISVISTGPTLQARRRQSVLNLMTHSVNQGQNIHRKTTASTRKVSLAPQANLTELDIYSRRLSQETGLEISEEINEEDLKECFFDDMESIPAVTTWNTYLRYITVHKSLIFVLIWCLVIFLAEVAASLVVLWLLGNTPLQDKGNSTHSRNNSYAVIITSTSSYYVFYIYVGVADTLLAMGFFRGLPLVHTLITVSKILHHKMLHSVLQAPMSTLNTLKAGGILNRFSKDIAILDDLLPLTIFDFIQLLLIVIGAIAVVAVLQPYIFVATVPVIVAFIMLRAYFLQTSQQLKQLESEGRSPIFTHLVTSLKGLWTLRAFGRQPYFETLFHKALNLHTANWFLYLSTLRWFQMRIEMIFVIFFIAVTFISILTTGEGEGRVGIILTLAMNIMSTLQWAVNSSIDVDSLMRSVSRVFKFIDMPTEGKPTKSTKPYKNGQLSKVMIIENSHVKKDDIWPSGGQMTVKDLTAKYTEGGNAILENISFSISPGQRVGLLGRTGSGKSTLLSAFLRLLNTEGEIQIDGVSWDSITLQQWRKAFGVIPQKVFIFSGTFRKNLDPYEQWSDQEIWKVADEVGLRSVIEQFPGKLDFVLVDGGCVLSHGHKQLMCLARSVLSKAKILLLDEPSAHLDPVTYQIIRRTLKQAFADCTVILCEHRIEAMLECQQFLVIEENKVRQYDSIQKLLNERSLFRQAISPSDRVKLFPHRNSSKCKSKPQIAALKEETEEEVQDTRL

SMILES	EC50 [µM]	% Activity
CCCCOc1ccccc1NC(=O)c1c[nH]c2ccccc2c1=O [Compound 177, N-(2-butoxyphenyl)-4-oxo-1H-quinoline-3-carboxamide]	< 10	+++ (>100%)
CC(C)(C)c1ccccc1Oc1ccccc1NC(=O)c1c[nH]c2ccccc2c1=O [Compound 178, 4-oxo-N-[2-(2-tert-butylphenoxy)phenyl]-1H-quinoline-3-carboxamide]	< 10	++ (between 25% to 100%)
Cc1ccc(-c2ccccc2NC(=O)c2c[nH]c3ccccc3c2=O)cc1 [Compound 181, 4-oxo-N-[2-(p-tolyl)phenyl]-1H-quinoline-3-carboxamide]	< 10	++ (between 25% to 100%)
O=C(Nc1ccccc1-c1ccc(F)cc1)c1c[nH]c2ccccc2c1=O [Compound 182, N-[2-(4-fluorophenyl)phenyl]-4-oxo-1H-quinoline-3-carboxamide]	< 10	++ (between 25% to 100%)
O=C(Nc1ccc2cc[nH]c2c1)c1c(C(F)(F)F)[nH]c2ccccc2c1=O [Compound 184, N-(1H-indol-6-yl)-4-oxo-2-(trifluoromethyl)-1H-quinoline-3-carboxamide]	25 to 60	+ (<25%)
CCOC(=O)c1cc2cc[nH]c2cc1NC(=O)c1c[nH]c2ccccc2c1=O [Compound 188, 6-[(4-oxo-1H-quinolin-3-yl)carbonylamino]-1H-indole-5-carboxylic acid ethyl ester]	< 10	++ (between 25% to 100%)
O=C(Nc1ccc(OCc2ccccc2)cc1)c1c[nH]c2ccccc2c1=O [Compound 189, N-(4-benzyloxyphenyl)-4-oxo-1H-quinoline-3-carboxamide]	< 10	++ (between 25% to 100%)
O=C(Nc1ccccc1-c1ccc(F)c(Cl)c1)c1c[nH]c2ccccc2c1=O [Compound 190, N-[2-(3-chloro-4-fluoro-phenyl)phenyl]-4-oxo-1H-quinoline-3-carboxamide]	< 10	++ (between 25% to 100%)

The next lines start with the values.

EC50 [µM]	% Activity	SMILES
< 10	++ (between 25% to 100%)	O=C(Nc1ccc(OC(F)(F)F)cc1)c1c[nH]c2ccccc2c1=O [Compound 176, 4-oxo-N-[4-(trifluoromethoxy)phenyl]-1H-quinoline-3-carboxamide]
25 to 60	+ (<25%)	NC(=O)c1cccc(NC(=O)c2c[nH]c3ccccc3c2=O)c1 [Compound 179, N-(3-carbamoylphenyl)-4-oxo-1H-quinoline-3-carboxamide]
< 10	++ (between 25% to 100%)	CCc1cccc(C)c1NC(=O)c1c[nH]c2ccccc2c1=O [Compound 180, N-(2-ethyl-6-methyl-phenyl)-4-oxo-1H-quinoline-3-carboxamide]
< 10	++ (between 25% to 100%)	CC(C)(C)OC(=O)N1CCCc2ccc(NC(=O)c3c[nH]c4ccccc4c3=O)cc21 [Compound 183, 7-[(4-oxo-1H-quinolin-3-yl)carbonylamino]-1,2,3,4-tetrahydroquinoline-1-carboxylic acid tert-butyl ester]
25 to 60	+ (<25%)	O=C(Nc1cccc(S(=O)(=O)N2CCOCC2)c1)c1c[nH]c2ccccc2c1=O [Compound 185, N-(3-morpholinosulfonylphenyl)-4-oxo-1H-quinoline-3-carboxamide]
< 10	++ (between 25% to 100%)	O=C(Nc1ccc2c(C3CCCC3)c[nH]c2c1)c1c[nH]c2ccccc2c1=O [Compound 186, N-(3-cyclopentyl-1H-indol-6-yl)-4-oxo-1H-quinoline-3-carboxamide]
< 10	++ (between 25% to 100%)	CC(=O)n1ccc2ccc(NC(=O)c3c[nH]c4ccccc4c3=O)cc21 [Compound 187, N-(1-acetyl-1H-indol-6-yl)-4-oxo-1H-quinoline-3-carboxamide]
